According to patent US20080125495A1, “Ameliorant For Renal Insufficiency” (MEIJI DAIRIES CORPORATION, priority 2004, published 2008):

Tested on: diabetes model rats
Assay: Renal dysfunction parameters in STZ-induced diabetes model rats (kidney weight, serum creatinine, serum urea nitrogen, MDA in kidney)
Format: in vivo, SD rats
Experimental: To 8 weeks old male SD rats, 50 mg/kg of STZ (streptozotocin, manufactured by Wako Pure Chemical Industries, Ltd.) was intraperitoneally administered, thereby inducing diabetes. The diabetes model rats were divided into four groups: as therapeutic groups, 2,4,4-trimethyl-3(15-hydroxypentadecyl)-2-cyclohexen-1-one ([…]) synthesized by a method described in JP-A-2000-297034 was intraperitoneally administered once a day continuously for 4 or 8 weeks; and as controls, a non-therapeutic group with diabetes alone (Diabetic Control) and a control group without treatment were prepared. After 4 or 8 weeks, serum and both kidneys were removed from the rats. The right kidney was stored in a frozen state and the left kidney was subjected to formalin fixation.
Increase of kidney weight, elevation of serum creatinine level, and increase of MDA in kidney may be observed by renal dysfunction caused by diabetes.

[1] = 2 mg/kg i.p. once a day, 4 weeks after STZ administration
[2] = 2 mg/kg i.p. once a day, 8 weeks after STZ administration
[3] = 8 mg/kg i.p. once a day, 4 weeks after STZ administration
[4] = 8 mg/kg i.p. once a day, 8 weeks after STZ administration
[5] = 8 mg/kg, eighth week after STZ administration
[6] = 8 mg/kg, fourth week after STZ administration

Which results are given for `CC1=C(CCCCCCCCCCCCCCCO)C(C)(C)CCC1=O` [Compound 1, 2,4,4-trimethyl-3(15-hydroxypentadecyl)-2-cyclohexen-1-one]?
increase of MDA in kidney (in words) (2 mg/kg): markedly suppressed; Serum creatinine [1]: 2.354 ± 0.254 mg/dL; Serum urea nitrogen [1]: 51.00 ± 3.78 mg/dL; Weight of kidney [1]: 1.33 ± 0.05 g; Serum creatinine [2]: 2.504 ± 0.253 mg/dL; Serum urea nitrogen [2]: 60.78 ± 5.34 mg/dL; Weight of kidney [2]: 1.59 ± 0.04 g; elevation of serum creatinine level (in words) (4 mg/kg, eighth week after STZ administration): tendency of the suppression; increase of MDA in kidney (in words) (8 mg/kg): markedly suppressed; Serum creatinine [3]: 1.004 ± 0.118 mg/dL; Serum urea nitrogen [3]: 41.76 ± 3.60 mg/dL; Weight of kidney [3]: 1.27 ± 0.07 g; Serum creatinine [4]: 1.836 ± 0.228 mg/dL; Serum urea nitrogen [4]: 53.69 ± 2.97 mg/dL; Weight of kidney [4]: 1.33 ± 0.05 g; elevation of serum creatinine level (in words) [5]: markedly suppressed; increase of kidney weight (in words) [5]: markedly suppressed; elevation of serum creatinine level (in words) [6]: markedly suppressed; elevation of serum urea nitrogen (in words) [6]: markedly suppressed; increase of kidney weight (in words) (rats to which the compound was administered, fourth week after STZ administration): suppressed
